Assay [1] deals with tumour. The note with it: earlier work, literature; cited from earlier work.
For assay [2], the system named is P388 leukaemia. The assay is described as follows: P388 in vivo, life span of mice bearing intraperitoneal P388 leukaemia. The conditions noted are these: for ILS (percentage increase in life span): at optimal dose, days 1, 5 and 9, controls survive 11 days on average, >20% statistically significant; for OD (O.D., optimal drug dose): solution in 0.1 ml of 30% v/v ethyl alcohol in water on days 1, 5 and 9, soluble acid addition salt. The arrangement: species or system mice (F1 hybrid, DBA-2 male×C57 B1 female). From the text: These have been shown by studies at the National Cancer Institute, U.S.A. to be useful for detecting agents with antitumor activity against clinical cancer (A. Goldin, J. M. Venditti, J. S. MacDonald, F. M. Mugia, J. E. Henney and V. T. De Vita, Europ.J. Cancer 17, 129-142, (1981). The abbreviations given in Table II are:
P388 in vivo--Tumour P388 cells were obtained as frozen stocks from Mason Research Inc., U.S.A. and passaged intraperitoneally according to standard methods (Cancer Chemother. Rep. 3, Part 3, page 9, 1972) in DBA-2 mice of either sex. Groups of six F1 hybrid mice (DBA-2 male×C57 B1 female, g weight 20±1 g) were injected intraperitoneally with 10^6 cells on day 0.
O.D.--optimal drug dose, in milligrams per kilogram, administered as a solution in 0.1 ml of 30% v/v ethyl alcohol in water on days 1, 5 and 9 after tumour inoculation. The drug is administered as a soluble acid addition salt.
ILS--percentage increase in life span of treated animals over that of groups of control animals injected with tumour alone. The average survival of control mice was 11 days. Values of ILS greater than 20% are considered statistically significant.

The test system of assay [3] is murine L1210 leukaemia cells. The assay is described as follows: L1210 in vitro, growth of cultured murine leukaemia cells. In kind it is cell-based. The note with it: Mus musculus, concentration that reduces counted number of leukaemia cells by 50% over 70 hours, read-out: ID50 (the source's name). From the text: L1210 in vitro--The culture methods used are described in detail elsewhere (B. C. Baguley and R. Nash, Europ.J.Cancer, 17, 671-679 (1981). Acceptable reproducibility of data depends critically upon the maintenance of optimal culture conditions. L1210 cells were initially obtained from Dr. I. Wodinsky, Arthur D. Little Inc., Boston, U.S.A., under the auspices of the National Cancer Institute.
ID50 --the nanomolar concentration of drug which when added to cultures of murine L1210 leukaemia cells over a period of 70 hours, reduces the resultant counted number of leukaemia cells by 50% (B. C. Baguley and R. Nash, Europ.J.Cancer 17, 671-679 (1981).

The text below walks through data of patent publication US4474961A, “1,10[8,9-Benz]phenanthroline” (Development Finance Corporation of New Zealand, priority 1982, dated 1984).

Consider `CS(=O)(=O)Nc1ccc(Nc2c3ccccc3nc3ccccc23)cc1` [AMSA, 4'-(9-acridinylamino) methanesulphonanilide], for which the antitumour effect result in assay [1] is listed as “marked antitumour effect”.
Turning to `COc1cc(NS(C)(=O)=O)ccc1Nc1c2ccccc2nc2c1ccc1cccnc12` [Compound 1], in assay [2], the Active entry is “Yes”; the “ILS (percentage increase in life span)” value came to 109%; the “OD (O.D., optimal drug dose)” value is 13.3 milligrams per kilogram. Besides, the IC50 in assay [3] amounted to 0.026 µM.
As for `CS(=O)(=O)Nc1ccc(Nc2c3ccccc3nc3c2ccc2cccnc23)cc1` [Compound 2], in assay [2], the Active result is recorded as “Yes”; the “ILS (percentage increase in life span)” value was 30%; the “OD (O.D., optimal drug dose)” value turned out to be 150 milligrams per kilogram. Further, the IC50 in assay [3] turned out to be 0.058 µM.
As to `COC(=O)Nc1ccc(Nc2c3ccccc3nc3c2ccc2cccnc23)c(OC)c1` [Compound 3], in assay [2], the Active result is given as “Yes”; the “ILS (percentage increase in life span)” value came to 95%; the “OD (O.D., optimal drug dose)” value was found to be 45 milligrams per kilogram. Further, in assay [3], the IC50 was found to be 0.046 µM.
The corresponding values for `COC(=O)Nc1ccc(Nc2c3ccccc3nc3c2ccc2cccnc23)cc1` [Compound 4] are “Yes”, 64%, 30 milligrams per kilogram and 0.018 µM.
The corresponding values for `COP(=O)(Nc1ccc(Nc2c3ccccc3nc3c2ccc2cccnc23)cc1)OC` [Compound 5] are “Yes”, 64%, 45 milligrams per kilogram and 0.031 µM.
